Experimental data reported in US7414041B2 (Trustees Of Tufts College, priority 1991, dated 2008).
Where two headings read alike, the source gives them in different places.

Assays:
[1] = biological target: T1, TET proteins responsible for tetracycline efflux (Class B tetracycline resistance determinant, strain D1-209) (Escherichia coli, UniProt P02980); test: biochemical; design: species or system E. coli
T1 construct: Everted vesicles, to which the TET proteins responsible for tetracycline efflux are attached; endogenous in cells; host or cells: E. coli strain D1-209 (everted membrane vesicles)

S. aureus 4250 (Tet K) = test: MIC/MLC chart, analog with and without doxycycline; type: cell-based
E. faecalis 158 (Tet L) = test: MIC/MLC chart, analog with and without doxycycline; type: cell-based
E. coli D1-299 (Tet A) = type: cell-based;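 also: E. coli at roughly 5×10^5 cells/ml in L broth, analog and doxycycline alone or mixed in two-fold dilutions from 50 to under 1 µg/ml, 18 h at 37 °C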
E. faecalis 211 (Tet M) = test: MIC/MLC chart, analog with and without doxycycline; type: cell-based;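 also: broth checkerboard of two-fold drug dilutions, alone and mixed with doxycycline, bacteria near 5×10^5 cells/ml, 18 h incubation at 37 °C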
[2] = test system: E. coli Tc^s (MI 300-225); test: susceptibility testing MIC/MLC, drug alone; type: cell-based; conditions: Tc^s
S. aureus Tc^s (RN450) = test: susceptibility testing MIC/MLC, drug alone; type: cell-based; conditions: for MLC: kills 99.9%
S. aureus Tc^r (RN4250) = type: cell-based; conditions: Tc^r RN4250; for MLC: kills 99.9%
[3] = test system: E. coli Class A Tc^r (DI-299); type: cell-based
[4] = test system: E. faecalis Tc^s (ATCC9790r); test: susceptibility testing MIC/MLC, drug alone; type: cell-based
[5] = test system: E. faecalis Tc^r (L) (ATCC9790r/Tet L); type: cell-based; conditions: for MIC: Tc^r (L)
[6] = test system: E. faecalis Tc^r (M) (ATCC9790r/Tet M); type: cell-based
[7] = test system: E. coli Class β Tc^r (DI-209); type: cell-based
E. faecalis (Tet M) = conditions: E. faecalis (Class M)
[8] = uptake at 2.5 minutes, about 4 μM 3H-tetracycline, read-out: IC50
[9] = doxycycline alone 1.56 μg/ml (Doxy Control)
[10] = doxycycline alone 3.12 μg/ml (Doxy Control)
[11] = doxycycline alone 6.25 μg/ml (Doxy Control)
[12] = doxycycline alone 12.5 μg/ml (Doxy Control)

T1 sequence (P02980 whole entry): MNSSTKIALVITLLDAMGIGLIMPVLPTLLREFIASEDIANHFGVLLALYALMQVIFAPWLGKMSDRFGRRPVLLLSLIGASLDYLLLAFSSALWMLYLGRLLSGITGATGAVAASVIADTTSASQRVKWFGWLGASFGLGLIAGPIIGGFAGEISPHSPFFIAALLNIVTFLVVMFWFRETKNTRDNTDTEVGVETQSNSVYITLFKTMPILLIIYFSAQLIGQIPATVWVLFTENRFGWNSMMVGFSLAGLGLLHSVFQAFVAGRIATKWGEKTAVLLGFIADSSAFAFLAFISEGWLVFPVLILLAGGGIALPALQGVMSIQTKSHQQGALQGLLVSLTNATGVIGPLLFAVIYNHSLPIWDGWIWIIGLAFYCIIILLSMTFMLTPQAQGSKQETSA

CC1c2cccc(O)c2C(=O)C2=C(O)C3(O)C(=O)C(C(N)=O)=C(O)[C@@H](N(C)C)C3[C@@H](OCCCN)C21 (stereo partly shown) [Cmpd 7]
IC50 [1, 8]: 6.4 µM

CC1c2cccc(O)c2C(=O)C2=C(O)C3(O)C(=O)C(C(N)=O)=C(O)[C@@H](N(C)C)C3[C@@H](OC(=O)CCC(=O)O)C21 (stereo partly shown) [Cmpd 6]
IC50 [1]: 2 µM

C[C@H]1c2cccc(O)c2C(O)=C2C(=O)[C@]3(O)C(O)=C(C(N)=O)C(=O)[C@@H](N(C)C)[C@@H]3[C@@H](O)[C@@H]21 [Doxy, Doxycycline, reference compound]
MIC/MLC chart symbol (S. aureus 4250 (Tet K); Chart 6B, Doxy Control (doxycycline alone), μg/ml = number in line above): +
growth / no growth (MIC) / killing (MLC) symbol (S. aureus 4250 (Tet K); doxy alone 1.56 μg/ml): +
growth / no growth (MIC) / killing (MLC) symbol (S. aureus 4250 (Tet K); doxy alone 3.12 μg/ml): +
growth / no growth (MIC) / killing (MLC) symbol (S. aureus 4250 (Tet K); doxy alone 6.25 μg/ml): +
growth / no growth (MIC) / killing (MLC) symbol (S. aureus 4250 (Tet K); doxy alone 12.5 μg/ml): +
MIC/MLC chart: growth or killing (S. aureus 4250 (Tet K); [9]): +
MIC/MLC chart: growth or killing (S. aureus 4250 (Tet K); [10]): +
MIC/MLC chart: growth or killing (S. aureus 4250 (Tet K); [11]): +
MIC/MLC chart: growth or killing (S. aureus 4250 (Tet K); [12]): ◯
MIC/MLC chart symbol (E. faecalis 158 (Tet L); Chart 6C, Doxy Control (doxycycline alone), μg/ml = number in line above): +
growth / no growth (MIC) / killing (MLC) symbol (E. faecalis 158 (Tet L); doxy alone 1.56 μg/ml): +
growth / no growth (MIC) / killing (MLC) symbol (E. faecalis 158 (Tet L); doxy alone 3.12 μg/ml): +
growth / no growth (MIC) / killing (MLC) symbol (E. faecalis 158 (Tet L); doxy alone 6.25 μg/ml): +
growth / no growth (MIC) / killing (MLC) symbol (E. faecalis 158 (Tet L); doxy alone 12.5 μg/ml): ↓
MIC/MLC chart: growth or killing (E. faecalis 158 (Tet L); [9]): +
MIC/MLC chart: growth or killing (E. faecalis 158 (Tet L); [10]): +
MIC/MLC chart: growth or killing (E. faecalis 158 (Tet L); [11]): +
MIC/MLC chart symbol (E. coli D1-299 (Tet A); Chart 6A, Doxy Control (doxycycline alone), μg/ml = number in line above): ◯ and +
growth / no growth (MIC) / killing (MLC) symbol (E. coli D1-299 (Tet A); doxy alone 1.56 μg/ml): +
growth / no growth (MIC) / killing (MLC) symbol (E. coli D1-299 (Tet A); doxy alone 3.12 μg/ml): +
growth / no growth (MIC) / killing (MLC) symbol (E. coli D1-299 (Tet A); doxy alone 6.25 μg/ml): +
growth / no growth (MIC) / killing (MLC) symbol (E. coli D1-299 (Tet A); doxy alone 12.5 μg/ml): +
growth / no growth (MIC) / killing (MLC) symbol (E. coli D1-299 (Tet A); doxy alone 25 μg/ml): ◯
MIC/MLC chart: growth or killing (E. coli D1-299 (Tet A); [9]): +
MIC/MLC chart: growth or killing (E. coli D1-299 (Tet A); [10]): +
MIC/MLC chart: growth or killing (E. coli D1-299 (Tet A); [11]): +
MIC/MLC chart: growth or killing (E. coli D1-299 (Tet A); [12]): +
MIC/MLC chart: growth or killing (E. coli D1-299 (Tet A); doxycycline alone 25.0 μg/ml (Doxy Control)): +
MIC/MLC chart symbol (E. faecalis 211 (Tet M); Chart 6D, Doxy Control (doxycycline alone), μg/ml = number in line above): ↓ and +
growth / no growth (MIC) / killing (MLC) symbol (E. faecalis 211 (Tet M); doxy alone 1.56 μg/ml): +
growth / no growth (MIC) / killing (MLC) symbol (E. faecalis 211 (Tet M); doxy alone 3.12 μg/ml): +
growth / no growth (MIC) / killing (MLC) symbol (E. faecalis 211 (Tet M); doxy alone 6.25 μg/ml): +
growth / no growth (MIC) / killing (MLC) symbol (E. faecalis 211 (Tet M); doxy alone 12.5 μg/ml): +
growth / no growth (MIC) / killing (MLC) symbol (E. faecalis 211 (Tet M); doxy alone 25 μg/ml): ↓
MIC/MLC chart: growth or killing (E. faecalis 211 (Tet M); [9]): +
MIC/MLC chart: growth or killing (E. faecalis 211 (Tet M); [10]): +
MIC/MLC chart: growth or killing (E. faecalis 211 (Tet M); [11]): +
MIC/MLC chart: growth or killing (E. faecalis 211 (Tet M); [12]): +

CN(C)C1C(O)=C(C(N)=O)C(=O)C2(O)C(O)=C3C(=O)c4c(O)cccc4C(C)(O)C3CC12 (stereo not shown) [Tetracycline, 4-(Dimethylamino)-1,4,4a,5,5a,6-11,12a-octahydro-3,6,10,12,12a-pentahydroxy-6-methyl-1-11-dioxo-2-naphth acenecarboxamide, reference compound]
MIC ([2]; 1st column): 0.6 ± 0.26 µg
MIC ([2]; 2nd column): 40 ± 0.26 µg
MIC (S. aureus Tc^s (RN450)): 0.75 ± 0.25 µg
MLC (S. aureus Tc^s (RN450)): >6 µg
MIC (S. aureus Tc^r (RN4250)): 90 ± 10 µg
MLC (S. aureus Tc^r (RN4250)): 100 µg
MIC ([3]; 1st column): 160 ± 0.26 µg
MIC ([3]; 2nd column): 200 µg
MIC ([4]; 1st column): 0.26 µg
MIC ([4]; 2nd column): >200 µg
MIC ([5]; 1st column): 90 ± 10 µg
MIC ([5]; 2nd column): >300 µg
MIC ([6]; 1st column): 100 µg
MIC ([6]; 2nd column): 300 µg
MIC ([7]; 1st column): >200 µg
MIC ([7]; 2nd column): >200 µg

CN(C)[C@@H]1C(O)=C(C(N)=O)C(=O)C2(O)C(O)=C3C(=O)c4c(O)cccc4C(CSC4CCCC4)C3[C@H](OC(=O)C3CCCC3)C12 (stereo partly shown) [Cmpd 10]
IC50 [1, 8]: > 30 µM

6-deoxy-13-(cyclohexyl mercapto) tetracycline
MIC ([2]; 1st column): 60 ± 10 µg
MIC ([2]; 2nd column): 120 µg
MIC (S. aureus Tc^s (RN450)): 2.5 ± 1.25 µg
MLC (S. aureus Tc^s (RN450)): 10 ± 5 µg
MIC ([3]; 1st column): 100 ± 0.26 µg
MIC ([3]; 2nd column): >200 µg
MIC ([4]; 1st column): 1.26 ± 0.26 µg
MIC ([4]; 2nd column): 8 µg
MLC ([5]; E. faecalis Tet L): 8 ± 2 µg/mL
MIC ([5]; 1st column): 1.6 ± 0.6 µg
synergistic activity with tetracycline (E. faecalis (Tet M)): little, if any synergistic activity
MIC ([6]; 1st column): 2.6 ± 0.6 µg

CCCCCCCC(=O)O[C@H]1C2C(=C(O)C3(O)C(=O)C(C(N)=O)=C(O)[C@@H](N(C)C)C13)C(=O)c1c(O)cccc1C2C (stereo partly shown) [Cmpd 4]
IC50 [1]: 9.3 µM

CC(C)SCC1c2cccc(O)c2C(=O)C2=C(O)C3(O)C(=O)C(C(N)=O)=C(O)C(N(C)C)C3C(O)C21 (stereo not shown) [Isopropyl]
MIC ([2]; 1st column): 22 ± 2 µg
MIC ([2]; 2nd column): 60 µg
MIC (S. aureus Tc^s (RN450)): 0.5 ± 0.25 µg
MLC (S. aureus Tc^s (RN450)): 6 ± 2 µg
MIC (S. aureus Tc^r (RN4250)): 4.5 ± 0.5 µg
MLC (S. aureus Tc^r (RN4250)): 8 µg
MIC ([3]; 1st column): 46 ± 6 µg
MIC ([3]; 2nd column): 60 µg
MIC ([4]; 1st column): 3 ± 1 µg
MIC ([4]; 2nd column): 20 ± 0.26 µg
MIC ([5]; 1st column): 3 ± 1 µg
MIC ([5]; 2nd column): 100 ± 0.25 µg
MIC ([6]; 2nd column): >200 µg
MIC ([7]; 1st column): 35 ± 6 µg
MIC ([7]; 2nd column): 46 ± 16 µg

CN(C)[C@@H]1C(O)=C(C(N)=O)C(=O)C2(O)C(O)=C3C(=O)c4c(O)cccc4C(CSC4CCCC4)C3[C@H](OC(=O)C3CCCCC3)C12 (stereo partly shown) [Cmpd 9]
IC50 [1]: > 30 µM

CN(C)c1ccc(O)c2c1C[C@H]1C[C@H]3[C@H](N(C)C)C(=O)C(C(N)=O)=C(O)[C@@]3(O)C(=O)C1=C2O [Minocycline, reference compound]
MIC ([2]; 1st column): <4 µg
MIC ([2]; 2nd column): <4 µg
MIC (S. aureus Tc^s (RN450)): <0.25 µg
MLC (S. aureus Tc^s (RN450)): 8 µg
MIC (S. aureus Tc^r (RN4250)): <0.25 µg
MLC (S. aureus Tc^r (RN4250)): >80 µg
MIC ([3]; 1st column): <4 µg
MIC ([3]; 2nd column): 20 µg
MIC ([4]; 1st column): <0.26 µg
MIC ([4]; 2nd column): >40 µg
MIC ([5]; 1st column): <0.26 µg
MIC ([5]; 2nd column): >80 µg
MIC ([6]; 1st column): 10 µg
MIC ([6]; 2nd column): >80 µg
MIC ([7]; 1st column): 6 ± 2 µg
MIC ([7]; 2nd column): 30 ± 10 µg

C=C1c2cccc(O)c2C(=O)C2=C(O)C3(O)C(=O)C(C(N)=O)=C(O)C(N(C)C)C3C(OC(=O)C3CC3)C12 (stereo not shown) [Cmpd 11, 5 cyclopropanoate methacycline]
IC50 [1]: 9.4 µM
